Test results published in patent US9745345B2, “Anti-tumor polypeptides and method for preparing anti-tumor drugs comprisng the same” (priority 2013, dated 2017).
Square brackets hold non-standard residues; d marks the D form. Ends that are not written are not given here. pS = N[C@@H](COP(=O)(O)O)C(=O)O; Ahx = NCCCCCC(=O)O

Columns and labels:
[1] = test system: SGC7901 cells; test: Annexin V-PE/7-AAD flow cytometry of apoptosis in SGC7901 cells; assay type: cell-based
Text: Six groups with different treatment methods directed against SGC7901 cells were designed: blank control group; transfection Flag-control group; transfection Hag-JWA group; transfection Flag-JWA and ATO combined treatment group; ATO treatment group; and polypeptide CPP-1 and ATO combined treatment group. After 24 hrs of treatment for each group, Annexin V-PE/PI flow cytometry was used to examine apoptosis and Western Blot was used to detect the level of PARP-1. […]
In normal cells, phosphatidyl serine (PS) are distributed on the inside of cell membrane lipid bilayer, and at the early stage of apoptosis the phosphatidyl serine (PS) in cell membranes is turned over from the inside of lipid membrane to the outside thereof. […] Annexin V was labeled with fluorescein phycoerythrin (PE); fluorescence microscopy or flow cytometry could be employed to examine apoptosis with the labeled Annexin V used as a fluorescent probe. […] Cells were divided into three group by the fluorescence intensity of 7-AAD labeling DNA: strong fluorescence of 7-AAD indicates dead cells, weak fluorescence of 7-AAD indicates apoptotic cells, and undetectable fluorescence of 7-AAD indicates normal active cells. […]

[2] = test system: SGC7901 cells; test: Western Blot of PARP-1 in SGC7901 cells; assay type: cell-based; settings: CPP-1 and ATO combined action group versus other groups
Experimental: The combined effect of ATO and polypeptide JWA-6 on the self-destruction of protein expression was also determined A375 cells in the logarithmic phase of growth were conventionally digested and 5×10^5 cells were inoculated evenly in a 60 mm cell culture dish, and different doses of ATO were used to individually treat the cells for 24 hrs, or different doses of ATO in combination with different doses of polypeptide JWA-6 were used to treat the cells for 24 hrs, after which 0.18 mL of RIPA lysis buffer containing 0.5% phenylmethanesulfonyl fluoride (PMSF) was added to extract protein. After centrifugation at 12000×g for 15 minutes, the supernatant was taken, protein concentration was examined. Based on the molecular weight measured, a polyacrylamide gel having a suitable concentration was chosen for protein electrophoresis where each well was added with […] of protein, and the conditions for electrolysis were 60 V, 30 minutes and 90 V, 1-1.5 hrs. After completion of the electrolysis, semi-dry transfer was performed to transfer the protein from the gel onto a polyvinylidene difluoride (PVDF) membrane. After completion of the transfer, the membrane was blocked with 5% skim milk at room temperature for 1-2 hrs. Then, the membrane was washed 3 times (each lasting 5 minutes) using Tris-buffered Saline with Tween (TBST) containing 0.1% Tween-20, and incubation of the corresponding antibody was performed overnight at 4° C. On the next day, membrane was washed 3 times (each lasting 5 minutes) using Tris-buffered Saline with Tween (TBST) containing 0.1% Tween-20; incubation of secondary antibody was performed at room temperature for 1-2 hrs; and again membrane was washed 8 times (each lasting 5 minutes) using Tris-buffered Saline with Tween (TBST) containing 0.1% Tween-20. The membrane was added with enhanced chemiluminescence (ECL) liquid and exposed. […]

[3] = test system: B16 cells; test: Western Blot of PARP-1 in B16 cells; assay type: cell-based; settings: JWA-6 in combination with ATO, 24 hrs
[4] = test system: A375 cells; test: Cytoactivity of A375 cells treated with ATO alone or with polypeptides in combination with ATO; assay type: cell-based, human
Experimental: Firstly, the dose and time for treatment of A375 cells with ATO were determined. A375 cells in the logarithmic phase of growth were conventionally digested and seeded in a 96-well plate (5×10^3 cells/well), and different doses (5 μM, 10 μM, 25 μM, 50 μM) of ATO were used to treat the cells for 24 hrs and 48 hrs after cell attachment. It was discovered that the activity of A375 cells was reduced by 40% after 24 hrs of treatment with 5 μM ATO (as shown in FIG. 24), and that the cell growth inhibition rate was approximately 100% after 48 hrs of treatment with different doses of ATO (as shown in FIG. 25). Therefore, ATO with a concentration smaller than or equal to 5 μM was chosen to treat the cells for 24 hrs for subsequent reference of dose and time for combined medication.

[5] = test system: A375 cells; test: Western Blot of apoptosis-related molecules (PARP-1, caspase-3) in A375 cells; assay type: cell-based, human; settings: JWA-6 in combination with ATO, 24 hrs; compared to untreated group and ATO alone
Experimental: The combined effect of ATO and polypeptide JWA-6 on the self-destruction of protein expression was also determined A375 cells in the logarithmic phase of growth were conventionally digested and 5×10^5 cells were inoculated evenly in a 60 mm cell culture dish, and different doses of ATO were used to individually treat the cells for 24 hrs, or different doses of ATO in combination with different doses of polypeptide JWA-6 were used to treat the cells for 24 hrs, after which 0.18 mL of RIPA lysis buffer containing 0.5% phenylmethanesulfonyl fluoride (PMSF) was added to extract protein. After centrifugation at 12000×g for 15 minutes, the supernatant was taken, protein concentration was examined. Based on the molecular weight measured, a polyacrylamide gel having a suitable concentration was chosen for protein electrophoresis where each well was added with […] of protein, and the conditions for electrolysis were 60 V, 30 minutes and 90 V, 1-1.5 hrs. After completion of the electrolysis, semi-dry transfer was performed to transfer the protein from the gel onto a polyvinylidene difluoride (PVDF) membrane. After completion of the transfer, the membrane was blocked with 5% skim milk at room temperature for 1-2 hrs. Then, the membrane was washed 3 times (each lasting 5 minutes) using Tris-buffered Saline with Tween (TBST) containing 0.1% Tween-20, and incubation of the corresponding antibody was performed overnight at 4° C. On the next day, membrane was washed 3 times (each lasting 5 minutes) using Tris-buffered Saline with Tween (TBST) containing 0.1% Tween-20; incubation of secondary antibody was performed at room temperature for 1-2 hrs; and again membrane was washed 8 times (each lasting 5 minutes) using Tris-buffered Saline with Tween (TBST) containing 0.1% Tween-20. The membrane was added with enhanced chemiluminescence (ECL) liquid and exposed.
Polypeptide CPP-JWA-6 at a dose of 20 μM, 50 μM was applied individually and applied in combination with ATO (5 μM) on A375 cells (as shown in FIG. 40) and SGC7901 cells (as shown in FIG. 41) for 24 hrs before protein was extracted, and the Western Blot method of Example 7 was used to examine the changes in apoptosis-related molecules.

[6] = test system: Human Melanoma A375 Cells; test: Cell proliferation with CCK8 reagent, A375 cells; assay type: cell-based; settings: 0-50 μM, 24, 48 and 72 hrs, in comparison with the control group
Experimental: (§1) B16F10 or A375 cells in the logarithmic phase of growth were trypsinized and seeded in a 96-well plate (5×10^3 cells/well), and were treated with different doses (0 μM, 5 μM, 10 μM, 25 μM, 50 μM) of polypeptide JWA-1, JWA-5, JWA-6 or non-pep (the polypeptide sequence used was the same as Example 3) for 24 hrs, 48 hrs and 72 hrs, respectively. The original culture medium was removed from the 96 wells at the indicated time and cell proliferation was determined with CCK8 reagent according to the manufacturer's instructions. Four duplicate samples were taken from each group and the experiments were repeated for three times.

[7] = test system: human melanoma A375 cells; test: Human melanoma A375 subcutaneous xenograft in NOD/SCID mice, intraperitoneal injection of polypeptides; assay type: in vivo; settings: Example 5; 50 mg/kg intraperitoneal, alternate days, 5 times
Text: The polypeptide designed and synthesized in this example was JWA-6+RGD whose sequence was SEQ ID NO: 7, i.e. 6-aminocaproic acid-FPGSDRF-GGGG-RGD, wherein amino acid S was phosphorylated. In addition, the N-terminus of the polypeptide sequence was acetylated and the C-terminus thereof was amidated during synthesis to prevent rapid degradation of the polypeptide. In this example, non-obese diabetic/severe combined immunodeficiency (NOD/SCID) mice were chosen for tumor-bearing model and the method for dorsal subcutaneous tumor bearing by inoculation of human melanoma A375 cells is the same as Example 2. The mice were randomly divided into four treatment groups after the tumors grew to a volume of about 100 mm^3. […]
Then, 50 mg/kg polypeptide JWA-6, 10 mg/kg polypeptide JWA-6+RGD, 50 mg/kg polypeptide JWA-6+RGD, and 50 mg/kg non-pep (the polypeptide sequence used was the same as Example 3) were injected intraperitoneally. The various groups were administered with injection on alternate days for 5 times consecutively; and the body weight of the mice and their tumor diameters were measured at each administration. After completion of the experiment the mice were sacrificed after anesthesia, tumors were separated from the bodies and the tumor weights measured.
Thereafter, the tumor bearing mice were obtained using the foregoing method of this example and divided into seven injection groups which were intraperitoneally injected with polypeptides JWA-6+RGD, JWA-6+RGD0, JWA-6+RGD1, JWA-6+RGD3, JWA-6+RGD7, JWA-6+RGD10, and non-pep (the polypeptide sequence used was the same as Example 3) at a dose of 50 mg/kg. The various groups were administered by intraperitoneal injection on alternate days for 5 times consecutively; and the body weight of the mice and their tumor diameters were measured at each administration. The day of first administration was taken as the first day, and the experiment was stopped on the twelfth day when the mice were sacrificed after anesthesia, and tumors were separated from the bodies and the tumor weights were measured.

[8] = test system: Mouse Melanoma B16F10 Cells; test: Cell proliferation with CCK8 reagent, B16F10 cells; assay type: cell-based; settings: 0-50 μM, 24, 48 and 72 hrs, in comparison with the control group
Experimental: as §1

[9] = test system: SGC7901 gastric cancer cell; test: Fluorescence of FITC-modified cell-penetrating peptides after entry into SGC7901 cells; assay type: cell-based; settings: 20 μM, 3 hrs
Text: To enable JWA functional polypeptides to effectively penetrate into tumor cells, four typical CPPs: R9, TAT, pep-1, 2K (see Table 3), and a blank control having only JWA-1 were selected, the cell-penetrating peptide (CPP) with the highest cell-penetrating effect, its optimal action concentration and optimal action time were selected from the cell model.
To facilitate the use of fluorescence microscopy to directly observe whether polypeptides have the ability to enter cells, the N-terminuses of the aforementioned sequences and JWA-1 were modified with fluorescein isothiocyanate (FITC) and the C-terminuses thereof were amidated.

“6-aminocaproic acid-(R)9-FFPGSDRFA ([Ahx]RRRRRRRRRFFPG[pS]DRFA) [CPP-1]” was tested, and the apoptosis rate ([1]; 20 μM polypeptide 3 hrs, then 5 μM ATO 24 hrs (combined action group)) was 55.76% and the “expression of PARP-1 spliceosome” value [2] was “higher than those of other groups”.

“6-aminocaproic acid-FPGSDRF ([Ahx]FPG[pS]DRF) [JWA-6]” was tested, and the “changes of PARP-1” value [3] was “changes of PARP-1 were also seen”, the “cytoactivity of A375 cells, combined use with ATO” value ([4]; polypeptide 50-500 μM in combination with ATO 0.5-5 μM, 24 and 48 hrs) was “obvious toxicity” and the “cleaved PARP-1” value [5] was “significantly increased”. For the same substance, the “cleaved caspase-3” value [5] was “significantly increased”, the “inhibition effect on A375 cells” value [6] was “no inhibition effect” and the tumor inhibition effect [7] was “a certain degree of tumor inhibition effect”. The “inhibition effect on B16F10 cells” value [8] was “no inhibition effect”.

With “6-aminocaproic acid-RRRRRRRRR ([Ahx]RRRRRRRRR) [R9, cell-penetrating peptide (CPP)]” the “fluorescence after entry into cells, differences between R9 group and other groups” value [9] was “the most significant”.

In the case of “arsenic trioxide [ATO, reference compound]”, the “activity of A375 cells reduced by” value ([4]; 5 μM ATO alone, 24 hrs) is reported as 40%, the “cell growth inhibition rate” value ([4]; ATO alone, different doses (5, 10, 25, 50 μM), 48 hrs) is reported as “approximately 100%” and the apoptosis rate ([1]; pure ATO treatment group, 24 hrs) is reported as 24.69%.
